Values after ≈ are worked out from the molar mass of the structure shown.
Tests used:
[1] = tested on: human lung adenocarcinoma A549; assay: In vitro cell growth inhibition test, MTT assay; type: cell-based; details: MTT assay 4 days after compound addition
Description: (§1) Test Example 2 In Vitro Cell Growth Inhibition Test Cells and MTT Assay
(§2) Human squamous lung cancer […], human squamous lung cancer Ma44, human lung adenocarcinoma A549, human colon cancer HT29 and human pancreas cancer PANC-1 were used.

human colon cancer HT29 = assay: In vitro cell growth inhibition test, MTT assay; type: cell-based; details: MTT assay 4 days after compound addition
Description: as §1, §2

[2] = tested on: human squamous lung cancer RERF-RC-AI; assay: In vitro cell growth inhibition test, MTT assay; type: cell-based; details: MTT assay 4 days after compound addition
Description: as §1, §2

[3] = tested on: DT-R cells (pRRE3-luc-transfected v-ki-ras-transformed NIH3T3 cells); signal derived from Ras oncogene products; assay: Inhibitory effect against cellular signaling derived from Ras oncogene products: luciferase reporter, dissociation of DT-R from DT-C activity (MAC); type: cell-based, mouse; details: minimal tested concentration at which luciferase activities of DT-C cells and DT-R cells dissociated
Description: Test Example 1 Inhibitory Effect Against Cellular Signaling Derived From Ras Oncogene Products
1) Establishment of Cell Lines Used in Assay
Based on the reporter plasmid (pGV-P (Toyo Ink, Japan)), in which luciferase gene was ligated to SV40-derived minimal promoter, we constructed a plasmid designated pRRE3-luc by inserting 3 copies of chemically synthesized oligonucleotides (Sequence: CAGGATATGACTCT, derived from mouse NVL-3 (M. A. Reddy et al.(1992)Mol. Endocrinol., 6, 1051)) into upstream of the promoter. v-ki-ras-transformed NIH3T3 cells (DT cells, provided by Dr. Makoto Noda (Kyoto Univ., School of medicine)) were transfected with this plasmid by liposome-mediated transfection and transfected cell lines stably incorporated and maintained each plasmid were obtained. We named pGV-P and pRRE3-transfected cell line as DT-C and DT-R, respectively and used in the assay described below.
2) Preparation of Samples
i) All the cell lines were cultured in Dulbecco's Modified Essential Medium (DMEM: 10% Fetal Calf Serum(FCS: Hyclone, USA)) including […] kanamycin (Meiji Seika, Japan) in humidified incubator under condition of 5% CO2 at 37° C.
ii) DT-C and DT-R cells were seeded at 2500 cells/well into flat-bottom 96 well multiplate (Sumitomo bakelite) and incubated for 24 hours.
iii) Test compounds were prepared as 1 mg/ml DMSO solution.
iv) The solution of test compounds were added to the culture. Tested compounds are used at the concentration from […] to 0.51 ng/ml with by 3-fold dilution.
v) After 24 hours, the culture supernatant was completely aspirated and […] of cell-lysing solution (PGC-50 (Toyo Ink, Japan)) was added before cells were dried up. In order to the cells were lysed completely, multiwell plates were left at room temperature for 10 to 30 min. The plates were wrapped up and stored at −20° C. till the day of measurement.
3) Measurement of Samples
i) Melt the samples by putting 96 well multiplate at 37° C. and add 90 μl/well 25 mM Tris (pH 7.5).
ii) Transfer 50 μl of the sample (110 μl) to the 96 well microplate for measurement (Microlite 1 (Dynatech)).
iii) Measure the samples by the luminometer, LUMINOUS CT9000D (Dia-Yatron, Japan). We used Pickagene luminescence kit PGL2000 or LT2.0 (Toyo Ink, Japan) as substrates for luminescence measurement (50 μl/well).
4) Judgment of the Results
i) The luciferase activity of DT-C cells and DT-R cells were plotted in the graph where the relative activity and the compound concentration were expressed as Y-axis and X-axis, respectively. We judged by the degree of dissociation between the activities of DT-C cells and DT-R cells as an index.
ii) Concretely, efficacy of the compound was expressed by two values described below.
a) Among the points of concentration tested, the minimal concentration (Minimal Active Concentration: MAC), at which the activities of DT-C cells and DT-R cells dissociated, was shown as an index of efficacy of the compound.

[4] = tested on: human squamous lung cancer Ma44; assay: In vitro cell growth inhibition test, MTT assay; type: cell-based; details: MTT assay 4 days after compound addition
Description: as §1, §2

[5] = tested on: human pancreas cancer PANC-1; assay: In vitro cell growth inhibition test, MTT assay; type: cell-based; details: MTT assay 4 days after compound addition
Description: as §1, §2

SMILES | IC50, A549 [1] | IC50, HT29 (human colon cancer HT29) | IC50, RERF-LC-AI [2] | MAC (Minimal Active Concentration) [3] | IC50, Ma44 [4] | IC50, PANC-1 [5]
CNC(N)=Nc1nc(C)ncc1CSc1nnc(-c2ccccc2N)o1.Cl.Cl [Compound A-5] | 160 ng/mL | 150 ng/mL | 200 ng/mL | – | – | –
CCNC(N)=Nc1nc(C)ncc1CSc1nnc(-c2ccccc2N)o1 [Compound A-8] | 12 ng/mL (≈ 0.0312 µM) | 8 ng/mL (≈ 0.0208 µM) | 10 ng/mL (≈ 0.026 µM) | – | – | –
CCCCNC(N)=Nc1nc(C)ncc1CSc1nnc(-c2ccccc2N)o1 [Compound A-9] | 90 ng/mL (≈ 0.218 µM) | 100 ng/mL (≈ 0.242 µM) | 25 ng/mL (≈ 0.0606 µM) | – | – | –
Cc1ncc(CSc2nnc(-c3ccccc3N)o2)c(N=C(N)NCc2ccccc2)n1 [Compound A-12] | – | 510 ng/mL (≈ 1.14 µM) | 870 ng/mL (≈ 1.95 µM) | – | – | –
CCNC(N)=Nc1nc(C)ncc1CSc1nnc(-c2ccccc2NC(C)=O)o1 [Compound A-18] | – | – | 2.2 ng/mL (≈ 0.00516 µM) | – | – | –
CNC(N)=Nc1nc(C)ncc1CSc1nnc(-c2ccccc2NC(C)=O)o1 [Compound A-19] | – | – | 20 ng/mL (≈ 0.0485 µM) | – | – | –
CCC(=O)Nc1ccccc1-c1nnc(SCc2cnc(C)nc2N=C(N)NC)o1 [Compound A-20] | – | – | 20 ng/mL (≈ 0.0469 µM) | – | – | –
CCNC(=Nc1nc(C)ncc1CSc1nnc(-c2ccccc2)o1)NC [Compound A-21] | – | – | 20 ng/mL (≈ 0.0522 µM) | – | – | –
CCNC(N)=Nc1nc(C)ncc1CSc1nnc(-c2ccccc2NC(=O)CC)o1 [Compound A-22] | – | – | 20 ng/mL (≈ 0.0454 µM) | – | – | –
CCNC(=Nc1nc(C)ncc1CSc1nnc(-c2ccccc2NC(=O)CC)o1)NC [Compound A-23] | 41 ng/mL (≈ 0.0902 µM) | – | 7.8 ng/mL (≈ 0.0172 µM) | 0.123 µg/mL | 25 ng/mL (≈ 0.055 µM) | –
CCNC(=Nc1nc(C)ncc1CSc1nnc(-c2ccccc2NC(C)=O)o1)NCC [Compound A-25] | 32 ng/mL (≈ 0.0704 µM) | – | 7.8 ng/mL (≈ 0.0172 µM) | 0.370 µg/mL | 31 ng/mL (≈ 0.0682 µM) | –
CCNC(=Nc1nc(C)ncc1CSc1nnc(-c2ccccc2O)o1)NC [Compound A-27] | 690 ng/mL (≈ 1.73 µM) | – | 79 ng/mL (≈ 0.198 µM) | – | 1000 ng/mL (≈ 2.5 µM) | –
CCNC(=Nc1nc(C)ncc1CSc1nnc(-c2ccccc2NCC)o1)NC [Compound A-40] | – | 49 ng/mL (≈ 0.115 µM) | – | 0.370 µg/mL | 71 ng/mL (≈ 0.166 µM) | –
CCNC(=Nc1nc(C)ncc1CSc1nnc(-c2cccc(N)c2)o1)NCC [Compound A-41] | – | 72 ng/mL (≈ 0.175 µM) | – | – | 65 ng/mL (≈ 0.158 µM) | –
CCNC(=Nc1nc(C(F)(F)F)ncc1CSc1nnc(-c2ccccc2N)o1)NCC [Compound A-46] | – | 320 ng/mL (≈ 0.686 µM) | 140 ng/mL (≈ 0.3 µM) | – | 1800 ng/mL (≈ 3.86 µM) | –
CCNC(=Nc1nc(C)ncc1CSc1nnc(-c2cc(F)ccc2N)o1)NCC [Compound A-50] | – | 90 ng/mL (≈ 0.209 µM) | 47 ng/mL (≈ 0.109 µM) | – | 260 ng/mL (≈ 0.604 µM) | –
CCNC(=Nc1nc(C)ncc1CSc1nnc(-c2ccc(Cl)cc2)o1)NCC [Compound A-62] | – | – | 7.8 ng/mL (≈ 0.0181 µM) | 0.0412 µg/mL | 24 ng/mL (≈ 0.0556 µM) | 17 ng/mL (≈ 0.0394 µM)
C=C(Br)CNC(=Nc1ncncc1CSc1nnc(-c2ccc(N)cc2)o1)NCC [Compound A-111] | 97 ng/mL (≈ 0.198 µM) | 35 ng/mL (≈ 0.0715 µM) | 17 ng/mL (≈ 0.0347 µM) | 0.123 µg/mL | 400 ng/mL (≈ 0.817 µM) | –
CCNC(=Nc1ncncc1CSc1nnc(-c2ccc(N)cc2)o1)NCCO [Compound A-113] | 620 ng/mL (≈ 1.5 µM) | 76 ng/mL (≈ 0.183 µM) | 27 ng/mL (≈ 0.0651 µM) | – | 1200 ng/mL (≈ 2.9 µM) | –
CCNC(=Nc1ncncc1CSc1nnc(-c2ccc(CC)cc2)o1)NCC [Compound A-114] | 320 ng/mL (≈ 0.778 µM) | 45 ng/mL (≈ 0.109 µM) | 29 ng/mL (≈ 0.0705 µM) | 1.11 µg/mL | 830 ng/mL (≈ 2.02 µM) | –
CCNC(=Nc1ncncc1CSc1nnc(-c2ccc(C(C)C)cc2)o1)NCC [Compound A-115] | 4600 ng/mL (≈ 10.8 µM) | 65 ng/mL (≈ 0.153 µM) | 430 ng/mL (≈ 1.01 µM) | – | 5800 ng/mL (≈ 13.6 µM) | –
CCCc1ccc(-c2nnc(SCc3cncnc3N=C(NCC)NCC)o2)cc1 [Compound A-116] | 3800 ng/mL (≈ 8.93 µM) | 72 ng/mL (≈ 0.169 µM) | 620 ng/mL (≈ 1.46 µM) | – | 4200 ng/mL (≈ 9.87 µM) | –
CCNC(=Nc1ncncc1CSc1nnc(-c2ccc(C(C)=O)cc2)o1)NCC [Compound A-117] | 1100 ng/mL (≈ 2.59 µM) | 17 ng/mL (≈ 0.04 µM) | 160 ng/mL (≈ 0.376 µM) | – | 8600 ng/mL (≈ 20.2 µM) | –
CCNC(=Nc1ncncc1CSc1nnc(-c2ccc([N+](=O)[O-])cc2Cl)o1)NCC [Compound A-126] | 28 ng/mL (≈ 0.0605 µM) | 14 ng/mL (≈ 0.0302 µM) | 12 ng/mL (≈ 0.0259 µM) | 0.0137 µg/mL | 170 ng/mL (≈ 0.367 µM) | –
CCCNC(=Nc1nc(C)ncc1CSc1nnc(-c2ccc(N)cc2OC)o1)NCCC [Compound A-156] | – | 23 ng/mL (≈ 0.0489 µM) | 16 ng/mL (≈ 0.034 µM) | – | 72 ng/mL (≈ 0.153 µM) | 25 ng/mL (≈ 0.0531 µM)
CNC(=Nc1nc(C)ncc1CSc1nnc(-c2ccc([N+](=O)[O-])cc2)o1)NC.Cl [Compound A-159] | – | – | – | 0.0412 µg/mL | – | –
CCNC(=Nc1ncncc1CSc1nnc(-c2ccc([N+](=O)[O-])cc2)o1)N(C)C [Compound A-190] | – | – | – | 0.0412 µg/mL | – | –
CCNC(=Nc1nc(C)ncc1COc1nnc(-c2ccccc2N)o1)NC [Compound B-2] | – | – | – | 0.370 µg/mL | – | –
CCNC(=Nc1ncncc1CSc1nnc(-c2cnc(C)cn2)o1)NCC [Compound D-32] | 3500 ng/mL (≈ 8.76 µM) | 13 ng/mL (≈ 0.0325 µM) | 13 ng/mL (≈ 0.0325 µM) | – | 3100 ng/mL (≈ 7.76 µM) | –
CCNC(=Nc1ncncc1CSc1nnc(-c2ccc(-n3cccc3)nc2)o1)NCC [Compound D-35] | 4600 ng/mL (≈ 10.2 µM) | 25 ng/mL (≈ 0.0556 µM) | 2500 ng/mL (≈ 5.56 µM) | – | 1500 ng/mL (≈ 3.34 µM) | –

— patent publication US6420367B1, “Pyrimidine derivatives exhibiting antitumor activity” (Shionogo & Co., Ltd., priority 1998, dated 2002)
